Experimental data taken from patent US11696913B2, “Prolonged ectoparasite-controlling agent for animal” (MITSUI CHEMICALS AGRO, INC., priority 2017, dated 2023).
Where two headings read alike, the source gives them in different places.

Tests used:
Ctenocephalides felis [1] = assay: Ctenocephalides felis in-vitro feeding test with fleas (CTECFE oral); conditions: 48 hours, read-out: insecticidal feeding activity; for pest or weed control at 0.8 ppm: dose 0.8 ppm in citrated cattle blood; for pest or weed control at 4 ppm: dose 4 ppm in citrated cattle blood; for pest or weed control at 0.16 ppm: dose 0.16 ppm in citrated cattle blood; for pest or weed control at 0.032 ppm: dose 0.032 ppm in citrated cattle blood; for pest or weed control at 0.0064 ppm: dose 0.0064 ppm in citrated cattle blood
In short: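 About 20 unfed adult cat fleas fed through parafilm on citrated cattle blood containing test substance (DMSO solution diluted in blood), held at about 37° C. Kill rate scored after 48 hours, 100% meaning all fleas dead.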

[2] = test system: Rhipicephalus (Boophilus) microplus; assay: In vitro injection test with Rhipicephalus (Boophilus) microplus (BOOPMI Inj); conditions: 168 h, laid fertile eggs after 7 days, read-out: acaricidal activity; for pest or weed control at 32 ng: dose 0.032 μg/animal injected; for pest or weed control at 0.00016 mg: dose 0.16 μg/animal injected; for pest or weed control at 0.0008 mg: dose 0.8 μg/animal injected
In short: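 Test substance in DMSO; 1 μl injected into abdomen of each of 5 engorged adult female ticks, then held at 28° C., 85% rel. hum. Activity scored after 7 days from laying of fertile eggs: 100% = no eggs or all infertile, 0% = all eggs fertile.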

Amblyomma americanum = assay: In vitro contact test with hard ticks (Amblyomma americanum nymphs); conditions: read-out: acaricidal activity; for pest or weed control at 0.2 µg/cm2, 0.2 µg/cm2: dose 0.2 μg/cm^2, 48 h; for pest or weed control at 1 µg/cm2, 1 µg/cm2: dose 1 μg/cm^2, 48 h
In short: (§1)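 Adult R. sanguineus, I. ricinus, D. variabilis or A. americanum nymphs exposed in glass vials coated with compound from acetone (900 ppm gives 5 μg/cm^2). Held 48 h at room temperature (R. sanguineus) or 21° C., 85% rel. hum.; then heated at 45-50° C. ≤5 min, motionless or uncoordinated ticks scored dead/moribund.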

Ctenocephalides felis [3] = assay: Systemic treatment in-vivo test with cat flea on rats; conditions: Ctenocephalides felis, ip, intraperitoneal injection
In short: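 Rats dosed intraperitoneally per body weight in glycerol formal (up to 25% NMP for poorly soluble compounds). 30 D. variabilis nymphs released on treatment day and weekly, 30 C. felis fleas 24 h later; live attached engorged ticks counted at 48 h (±4 h), live fleas at 24 h, efficacy versus placebo group.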

Dermacentor variabilis [4] = assay: Systemic treatment in-vivo test with American dog tick nymph on rats; conditions: Dermacentor variabilis, ip, intraperitoneal injection, 10 mg/kg
Procedure: Systemic Treatment In-Vivo Test with American Dog Tick Nymph and Cat Flea on Rats
Type of study and overall study design: The method is a randomized non-blinded efficacy study in accordance with European animal welfare requirements. Rats (Rattus norvegicus) were randomized based on pre-treatment flea counts. The efficacy of treatment was determined by comparison of the flea and tick counts of different treatment groups versus the placebo-treated control group. The experimental unit was the individual study animal. Method and route of administration: The compound was applied in a suitable solvent and carrier (more specifically, added to glycerol formal; in case of poorly soluble compounds, a solvent mixture with up to 25% by volume of N-methyl pyrrolidone may be used.) considering the individual body weight as an intraperitoneal injection.
Experimental infestation: On the day of treatment and weekly thereafter, 30 ticks (D. variabilis nymphs) were released onto the back of each rat, and 30 fleas (C. felis) were released onto the back of each rat 24 h later.
Tick and Flea counting: Rats were thoroughly examined and ticks and fleas were manually removed 48 h (±4 h) after tick infestation and 24 h after flea infestation. Live fleas and live attached engorged ticks were counted. In non-evident cases, engorgement status was evaluated by squeezing the tick on a filter paper to find traces of blood as sign for engorgement.

Dermacentor variabilis [5] = assay: In vitro contact test with adult hard ticks (Dermacentor variabilis); conditions: read-out: acaricidal activity; for pest or weed control at 1 µg/cm2, 1 µg/cm2: dose 1 μg/cm^2, 48 h; for pest or weed control at 0.2 µg/cm2, 0.2 µg/cm2: dose 0.2 μg/cm^2, 48 h
In short: as §1

Laodelphax striatellus = assay: Insecticidal testing against small brown planthopper; format: in vivo; conditions: 144 h, concentration 100 ppm, sprayed rice seedlings, after 6 days, read-out: pesticidal rate
In short: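 Acetone solution of compound at a set concentration sprayed onto rice seedlings, air-dried, then exposed to 10 planthoppers (one group). Held at 25° C; survival rate recorded after 6 days.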

Plutella xylostella = assay: Insecticidal testing against diamondback moth; format: in vivo; conditions: foliar, 144 h, concentration 100 ppm, cabbage leaf dip, third-stage larvae, after 6 days, read-out: pesticidal rate
Text: Insecticidal Testing Against Diamondback Moth (Plutella xylostella)

[6] = SD 2, read-out: Geometric mean percent reduction in live flea (Ctenocephalides felis) counts compared to untreated control rats
[7] = SD 9, read-out: Geometric mean percent reduction in live flea (Ctenocephalides felis) counts compared to untreated control rats
[8] = SD 16, read-out: Geometric mean percent reduction in live flea (Ctenocephalides felis) counts compared to untreated control rats
[9] = SD 23, read-out: Geometric mean percent reduction in live flea (Ctenocephalides felis) counts compared to untreated control rats
[10] = SD 2, read-out: Geometric mean percent reduction in live tick (Dermacentor variabilis) counts compared to untreated control rats
[11] = SD 9, read-out: Geometric mean percent reduction in live tick (Dermacentor variabilis) counts compared to untreated control rats
[12] = SD 16, read-out: Geometric mean percent reduction in live tick (Dermacentor variabilis) counts compared to untreated control rats
[13] = SD 23, read-out: Geometric mean percent reduction in live tick (Dermacentor variabilis) counts compared to untreated control rats
[14] = SD 30, read-out: Geometric mean percent reduction in live tick (Dermacentor variabilis) counts compared to untreated control rats
[15] = SD 30, read-out: Geometric mean percent reduction in live flea (Ctenocephalides felis) counts compared to untreated control rats

| Compound | pest or weed control at 0.8 ppm (Ctenocephalides felis [1]) [%] | pest or weed control at 4 ppm (Ctenocephalides felis [1]) [%] | pest or weed control at 32 ng [2] [%] | pest or weed control at 0.00016 mg [2] [%] | pest or weed control at 0.0008 mg [2] [%] | pest or weed control at 0.2 µg/cm2, 0.2 µg/cm2 (Amblyomma americanum) [%] | pest or weed control at 1 µg/cm2, 1 µg/cm2 (Amblyomma americanum) [%] | inhibition in vivo at 10 mg/kg (Dermacentor variabilis [4]; [10]) [%] | inhibition in vivo at 10 mg/kg (Dermacentor variabilis [4]; [11]) [%] | inhibition in vivo at 10 mg/kg (Dermacentor variabilis [4]; [12]) [%] | inhibition in vivo at 10 mg/kg (Dermacentor variabilis [4]; [13]) [%] | inhibition in vivo at 10 mg/kg (Dermacentor variabilis [4]; [14]) [%] | pest or weed control at 0.16 ppm (Ctenocephalides felis [1]) [%] | pest or weed control at 1 µg/cm2, 1 µg/cm2 (Dermacentor variabilis [5]) [%] | pest or weed control at 100 ppm (Laodelphax striatellus) [%] | inhibition in vivo at 10 mg/kg (Ctenocephalides felis [3]; [6]) [%] | inhibition in vivo at 10 mg/kg (Ctenocephalides felis [3]; [7]) [%] | inhibition in vivo at 10 mg/kg (Ctenocephalides felis [3]; [8]) [%] | inhibition in vivo at 10 mg/kg (Ctenocephalides felis [3]; [9]) [%] | inhibition in vivo at 10 mg/kg (Ctenocephalides felis [3]; [15]) [%] | other results |
| --- | --- | --- | --- | --- | --- | --- | --- | --- | --- | --- | --- | --- | --- | --- | --- | --- | --- | --- | --- | --- | --- |
| CN(C(=O)c1ccc(F)cc1)c1cccc(C(=O)Nc2c(I)cc(C(F)(C(F)(F)F)C(F)(F)F)cc2C(F)(F)F)c1F [Compound 24] | 95 | 95 | 100 | 100 | 100 | 90 | 90 |  |  |  |  |  |  |  |  |  |  |  |  |  | inhibition in vivo at 5 mg/kg (Ctenocephalides felis [3]; [6]): 100%; inhibition in vivo at 5 mg/kg (Ctenocephalides felis [3]; [7]): 99%; inhibition in vivo at 5 mg/kg (Ctenocephalides felis [3]; [8]): 99%; inhibition in vivo at 5 mg/kg (Ctenocephalides felis [3]; [9]): 36% |
| CN(C(=O)c1ccc(C(F)(F)F)nc1)c1cccc(C(=O)Nc2c(I)cc(C(F)(C(F)(F)F)C(F)(F)F)cc2C(F)(F)F)c1F [Compound 66, N-(2-fluoro-3-((2-iodo-4-(perfluoropropan-2-yl)-6-(trifluoromethyl)phenyl)carbamoyl)phenyl)-N-methyl-6-(trifluoromethyl)nicotinamide] | 95 | 95 |  | 100 | 100 |  |  | 100 | 100 | 100 | 100 | 95 | 95 | 90 | ≥ 70 | 100 | 100 | 100 | 100 | 79 | pest or weed control at 100 ppm (Plutella xylostella): ≥ 70% |
| CN(C(=O)c1ccc(F)cc1)c1cccc(C(=O)Nc2c(I)cc(C(F)(C(F)(F)F)C(F)(F)C(F)(F)F)cc2C(F)(F)F)c1F (stereo not shown) [Compound 37] | 95 | 95 | 100 | 100 | 100 | 90 | 90 | 100 | 100 | 99 | 99 | 80 | 95 | 90 |  | 100 | 97 | 97 | 100 | 80 | pest or weed control at 0.032 ppm (Ctenocephalides felis [1]): 95%; pest or weed control at 0.2 µg/cm2, 0.2 µg/cm2 (Dermacentor variabilis [5]): 90%; pest or weed control at 6.4 ng ([2]; dose 0.0064 μg/animal injected): 100% |
| CN(C(=O)c1ccc(F)nc1)c1cccc(C(=O)Nc2c(I)cc(C(F)(C(F)(F)F)C(F)(F)F)cc2C(F)(F)F)c1F [Compound 115, 6-fluoro-N-(2-fluoro-3-((2-iodo-4-(perfluoropropan-2-yl)-6-(trifluoromethyl)phenyl)carbamoyl)phenyl)-N-methylnicotinamide] | 95 | 95 | 100 | 100 | 100 | 90 | 90 | 100 | 99 | 86 | 46 | 17 | 95 | 90 | ≥ 70 | 100 | 100 | 99 | 47 | 8 | pest or weed control at 0.0064 ppm (Ctenocephalides felis [1]): 95%; pest or weed control at 0.032 ppm (Ctenocephalides felis [1]): 95%; pest or weed control at 0.2 µg/cm2, 0.2 µg/cm2 (Dermacentor variabilis [5]): 90%; inhibition in vivo at 2 mg/kg (Ctenocephalides felis [3]; [6]): 100%; inhibition in vivo at 2 mg/kg (Ctenocephalides felis [3]; [7]): 98%; inhibition in vivo at 2 mg/kg (Ctenocephalides felis [3]; [8]): 73%; pest or weed control at 100 ppm (Plutella xylostella): ≥ 70% |
| CN(C(=O)c1ccc(F)c(F)c1)c1cccc(C(=O)Nc2c(I)cc(C(F)(C(F)(F)F)C(F)(F)F)cc2C(F)(F)F)c1F [Compound 51] | 95 | 95 | 100 | 100 | 100 |  | 90 |  |  |  |  |  | 95 | 90 | ≥ 70 | 100 | 100 | 98 | 90 | 90 | pest or weed control at 0.0064 ppm (Ctenocephalides felis [1]): 95%; pest or weed control at 0.032 ppm (Ctenocephalides felis [1]): 95%; pest or weed control at 0.2 µg/cm2, 0.2 µg/cm2 (Dermacentor variabilis [5]): 90%; inhibition in vivo at 2 mg/kg (Ctenocephalides felis [3]; [6]): 100%; inhibition in vivo at 2 mg/kg (Ctenocephalides felis [3]; [7]): 96%; inhibition in vivo at 2 mg/kg (Ctenocephalides felis [3]; [8]): 67%; inhibition in vivo at 2 mg/kg (Ctenocephalides felis [3]; [9]): 37%; pest or weed control at 100 ppm (Plutella xylostella): ≥ 70% |
